According to patent publication US12351556B2, “Pyridin-2(1H)one derivatives, their preparation and their use for the treatment of pain” (INSTITUT NATIONAL DE LA SANTE ET DE LA RECHERCHE MEDICALE …, priority 2019, dated 2025):

Columns and labels:
Assay in all cases: ICKP protein kinase panel screening
Format in all cases: biochemical
Details in all cases: duplicate assays, read-out: mean % residual activity
PIM1 = PIM1 (Homo sapiens (Human), UniProt P11309)
Description: (§1) FIG. 3 illustrates the human kinome. Compound 69 was evaluated at the International Center For Kinase Profiling (ICKP, Dundee, Scotland) toward a panel of 50 protein kinases that provide a representative sampling of the human kinome. The results were expressed as the mean percentage of residual activity at 10 μM concentration (duplicate assays). Small disks: ≥65%, larger disk: 19%. The black square indicates the kinome region containing protein kinases evaluated in a second screening (FIG. 4, Table 4). The tree was generated using the Kinome Render software, and the illustration reproduced courtesy of Cell Signaling Technology, Inc. (www.cellsignal.com) Chartier et al PeerJ 2013, 1:e126.
(§2) Results are expressed as the mean percentage of residual activity at 10 μM (Table 3) or 1 μM (Table 4). They are illustrated on FIGS. 3 and 4.
(§3) Studies were undertaken to identify the possible biological target(s) of compound 69. The activation in neurons of PK such as PKCγ, ERK or p38 MAPK can contribute to pain hypersensitivity. Therefore, it was decided to screen compound 69 toward a panel of 50 PKs that provide a representative sampling of the human kinome (FIG. 3, Table 3) (Biochem. J. 2007, 408, 297-315). In this panel, p38α MAPK was identified as the privileged target, with 19% of kinase residual activity at 10 μM compound concentration.

Aurora B = Aurora B (Homo sapiens (Human), UniProt Q96GD4)
Aurora B, sequence (Q96GD4 whole entry): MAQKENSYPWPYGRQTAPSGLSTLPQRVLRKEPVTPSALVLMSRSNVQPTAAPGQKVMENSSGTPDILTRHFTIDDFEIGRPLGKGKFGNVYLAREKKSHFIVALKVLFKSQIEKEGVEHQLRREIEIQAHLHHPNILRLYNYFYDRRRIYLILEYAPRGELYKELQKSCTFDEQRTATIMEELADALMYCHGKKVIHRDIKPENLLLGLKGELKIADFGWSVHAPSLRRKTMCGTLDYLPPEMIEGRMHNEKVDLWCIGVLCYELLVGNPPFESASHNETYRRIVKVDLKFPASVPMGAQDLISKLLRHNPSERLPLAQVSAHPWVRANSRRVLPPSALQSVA
Description: as §1, §2, §3

LKB1 = LKB1 (Homo sapiens (Human), UniProt Q15831)
LKB1, sequence (Q15831 whole entry): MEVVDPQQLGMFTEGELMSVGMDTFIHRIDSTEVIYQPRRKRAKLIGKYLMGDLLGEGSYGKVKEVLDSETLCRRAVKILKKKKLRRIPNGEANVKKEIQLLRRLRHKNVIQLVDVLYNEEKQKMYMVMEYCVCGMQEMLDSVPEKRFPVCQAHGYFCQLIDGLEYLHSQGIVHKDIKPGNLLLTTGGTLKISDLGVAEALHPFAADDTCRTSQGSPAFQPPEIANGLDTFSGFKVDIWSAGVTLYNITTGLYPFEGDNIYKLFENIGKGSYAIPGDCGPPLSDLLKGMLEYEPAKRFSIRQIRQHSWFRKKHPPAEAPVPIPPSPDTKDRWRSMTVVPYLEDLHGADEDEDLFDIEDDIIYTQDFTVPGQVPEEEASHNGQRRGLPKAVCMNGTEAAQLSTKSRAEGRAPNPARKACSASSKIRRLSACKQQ
LKB1, sequence (Q7RTN6 whole entry partner): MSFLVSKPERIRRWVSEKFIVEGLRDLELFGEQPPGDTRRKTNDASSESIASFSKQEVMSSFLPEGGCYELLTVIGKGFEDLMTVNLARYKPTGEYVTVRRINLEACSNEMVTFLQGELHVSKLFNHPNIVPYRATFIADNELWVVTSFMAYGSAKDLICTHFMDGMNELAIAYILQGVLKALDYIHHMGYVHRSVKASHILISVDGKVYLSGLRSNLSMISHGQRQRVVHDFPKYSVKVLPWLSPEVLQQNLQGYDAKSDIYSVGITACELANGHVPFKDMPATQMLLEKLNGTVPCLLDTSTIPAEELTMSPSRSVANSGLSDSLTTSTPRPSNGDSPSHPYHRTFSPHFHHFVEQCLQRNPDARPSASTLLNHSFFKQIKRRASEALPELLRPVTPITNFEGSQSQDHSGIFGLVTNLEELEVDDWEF
LKB1, sequence (Q9Y376 whole entry partner): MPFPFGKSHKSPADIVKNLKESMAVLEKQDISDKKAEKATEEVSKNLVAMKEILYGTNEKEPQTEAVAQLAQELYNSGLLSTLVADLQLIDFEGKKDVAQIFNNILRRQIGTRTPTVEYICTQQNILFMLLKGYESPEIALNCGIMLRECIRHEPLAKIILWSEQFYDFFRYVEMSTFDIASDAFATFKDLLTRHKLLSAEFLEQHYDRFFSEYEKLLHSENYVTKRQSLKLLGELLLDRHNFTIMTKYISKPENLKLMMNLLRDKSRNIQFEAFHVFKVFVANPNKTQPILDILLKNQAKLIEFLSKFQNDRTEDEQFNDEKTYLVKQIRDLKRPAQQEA
Description: as §1, §2, §3

CK1δ = CK1δ (Homo sapiens (Human), UniProt P48730)
CK1δ, sequence (P48730 whole entry): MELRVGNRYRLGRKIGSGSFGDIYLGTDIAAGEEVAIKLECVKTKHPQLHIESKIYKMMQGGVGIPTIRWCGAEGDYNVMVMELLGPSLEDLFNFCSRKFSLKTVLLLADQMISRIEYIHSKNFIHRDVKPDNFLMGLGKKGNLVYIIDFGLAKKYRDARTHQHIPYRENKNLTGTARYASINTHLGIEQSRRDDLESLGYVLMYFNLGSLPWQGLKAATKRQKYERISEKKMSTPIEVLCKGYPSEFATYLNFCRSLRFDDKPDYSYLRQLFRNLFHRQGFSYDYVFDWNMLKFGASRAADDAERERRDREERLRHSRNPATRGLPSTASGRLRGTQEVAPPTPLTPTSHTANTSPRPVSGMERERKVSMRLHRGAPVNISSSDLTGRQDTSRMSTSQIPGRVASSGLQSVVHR
Description: as §1, §2, §3

PLK1 = PLK1 (Homo sapiens (Human), UniProt P53350)
PLK1, sequence (P53350 whole entry): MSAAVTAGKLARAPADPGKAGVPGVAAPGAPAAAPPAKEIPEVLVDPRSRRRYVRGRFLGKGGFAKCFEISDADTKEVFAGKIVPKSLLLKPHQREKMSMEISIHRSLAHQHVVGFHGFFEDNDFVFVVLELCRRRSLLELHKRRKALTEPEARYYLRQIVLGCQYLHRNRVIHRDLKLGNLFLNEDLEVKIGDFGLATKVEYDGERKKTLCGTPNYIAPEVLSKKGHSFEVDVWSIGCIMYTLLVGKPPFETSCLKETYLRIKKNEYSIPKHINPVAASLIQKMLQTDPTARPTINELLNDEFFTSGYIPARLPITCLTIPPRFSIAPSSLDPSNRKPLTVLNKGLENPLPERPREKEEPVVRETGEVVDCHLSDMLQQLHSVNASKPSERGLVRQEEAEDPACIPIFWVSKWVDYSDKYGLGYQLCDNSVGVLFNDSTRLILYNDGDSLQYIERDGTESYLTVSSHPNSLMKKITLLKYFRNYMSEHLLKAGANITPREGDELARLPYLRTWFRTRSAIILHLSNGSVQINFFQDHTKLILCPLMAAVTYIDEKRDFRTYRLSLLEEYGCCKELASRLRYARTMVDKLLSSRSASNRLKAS
Description: as §1, §2, §3

TrkA = TrkA (Homo sapiens (Human), UniProt P04629)
Description: as §1, §2, §3

HIPK2 = HIPK2 (Homo sapiens (Human), UniProt Q9H2X6)
Description: as §1, §2, §3

CHK2 = CHK2 (Homo sapiens (Human), UniProt O96017)
Description: as §1, §2, §3

RSK1 = RSK1 (Homo sapiens (Human), UniProt Q15418)
Description: as §1, §2, §3

EF2K = EF2K (Homo sapiens (Human), UniProt O00418)
Description: as §1, §2, §3

MST2 = MST2 (Homo sapiens (Human), UniProt Q13188)
Description: as §1, §2, §3

CAMK1 = CAMK1 (Homo sapiens (Human), UniProt Q14012)
Description: as §1, §2, §3

TAK1 = TAK1 (Homo sapiens (Human), UniProt O43318)
Description: as §1, §2, §3

IGF-1R = IGF-1R (Homo sapiens (Human), UniProt P08069)
IGF-1R, sequence (P08069 31-1367): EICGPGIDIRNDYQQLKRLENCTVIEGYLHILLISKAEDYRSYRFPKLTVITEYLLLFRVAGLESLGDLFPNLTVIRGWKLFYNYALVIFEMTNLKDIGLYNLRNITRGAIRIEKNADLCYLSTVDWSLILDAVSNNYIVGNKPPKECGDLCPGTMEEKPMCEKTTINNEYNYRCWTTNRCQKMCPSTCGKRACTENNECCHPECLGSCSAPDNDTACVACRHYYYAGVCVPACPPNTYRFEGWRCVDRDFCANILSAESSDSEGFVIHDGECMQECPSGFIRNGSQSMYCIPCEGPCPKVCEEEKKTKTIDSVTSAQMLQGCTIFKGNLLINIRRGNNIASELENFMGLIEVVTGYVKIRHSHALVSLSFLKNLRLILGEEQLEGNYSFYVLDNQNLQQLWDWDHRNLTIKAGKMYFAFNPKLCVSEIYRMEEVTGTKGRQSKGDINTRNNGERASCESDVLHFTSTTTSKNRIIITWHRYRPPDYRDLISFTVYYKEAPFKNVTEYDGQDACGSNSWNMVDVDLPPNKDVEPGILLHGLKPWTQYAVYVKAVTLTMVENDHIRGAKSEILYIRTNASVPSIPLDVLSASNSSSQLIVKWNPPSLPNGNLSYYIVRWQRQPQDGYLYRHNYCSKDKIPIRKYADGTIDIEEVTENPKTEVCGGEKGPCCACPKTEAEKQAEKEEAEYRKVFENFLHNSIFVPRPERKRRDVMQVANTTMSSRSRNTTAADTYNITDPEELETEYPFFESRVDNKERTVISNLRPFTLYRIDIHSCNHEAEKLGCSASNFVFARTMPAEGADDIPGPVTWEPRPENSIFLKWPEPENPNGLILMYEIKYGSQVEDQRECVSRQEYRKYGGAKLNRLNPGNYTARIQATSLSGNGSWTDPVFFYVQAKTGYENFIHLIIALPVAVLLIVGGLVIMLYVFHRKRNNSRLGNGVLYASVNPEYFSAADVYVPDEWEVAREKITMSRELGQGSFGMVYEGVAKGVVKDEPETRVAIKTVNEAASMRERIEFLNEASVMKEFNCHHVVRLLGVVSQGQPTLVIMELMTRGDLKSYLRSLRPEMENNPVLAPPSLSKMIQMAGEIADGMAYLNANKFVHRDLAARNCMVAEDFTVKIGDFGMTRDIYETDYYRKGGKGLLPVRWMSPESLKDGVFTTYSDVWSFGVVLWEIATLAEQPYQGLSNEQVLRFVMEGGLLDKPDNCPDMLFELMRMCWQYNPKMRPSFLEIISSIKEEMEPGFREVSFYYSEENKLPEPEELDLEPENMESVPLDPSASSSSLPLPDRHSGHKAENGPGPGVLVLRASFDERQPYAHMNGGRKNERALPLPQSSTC
Description: as §1, §2, §3

RIPK2 = RIPK2 (Homo sapiens (Human), UniProt O43353)
Description: as §1, §2, §3

TBK1 = TBK1 (Homo sapiens (Human), UniProt Q9UHD2)
Description: as §1, §2, §3

SYK = SYK (Homo sapiens (Human), UniProt P43405)
Description: as §1, §2, §3

Src = Src (Homo sapiens (Human), UniProt P12931)
Description: as §1, §2, §3

NEK6 = NEK6 (Homo sapiens (Human), UniProt Q9HC98)
Description: as §1, §2, §3

IRAK4 = IRAK4 (Homo sapiens (Human), UniProt Q9NWZ3)
Description: as §1, §2, §3

PKD1 = PKD1 (Homo sapiens (Human), UniProt Q15139)
Description: as §1, §2, §3

PKCa = PKCa (Homo sapiens (Human), UniProt P17252)
Description: as §1, §2, §3

BTK = BTK (Homo sapiens (Human), UniProt Q06187)
Description: as §1, §2, §3

PKA = PKA (Homo sapiens (Human), UniProt P17612)
Description: as §1, §2, §3

JAK3 = JAK3 (Homo sapiens (Human), UniProt P52333)
Description: as §1, §2, §3

GSK3b = GSK3b (Homo sapiens (Human), UniProt P49841)
Description: as §1, §2, §3

Lck = Lck (Homo sapiens (Human), UniProt P06239)
Description: as §1, §2, §3

MKK1 = MKK1 (Homo sapiens (Human), UniProt Q02750)
Description: as §1, §2, §3

HER4 = HER4 (Homo sapiens (Human), UniProt Q15303)
Description: as §1, §2, §3

SGK1 = SGK1 (Homo sapiens (Human), UniProt O00141)
Description: as §1, §2, §3

MSK1 = MSK1 (Homo sapiens (Human), UniProt O75582)
Description: as §1, §2, §3

MARK3 = MARK3 (Homo sapiens (Human), UniProt P27448)
MARK3, sequence (P27448 whole entry): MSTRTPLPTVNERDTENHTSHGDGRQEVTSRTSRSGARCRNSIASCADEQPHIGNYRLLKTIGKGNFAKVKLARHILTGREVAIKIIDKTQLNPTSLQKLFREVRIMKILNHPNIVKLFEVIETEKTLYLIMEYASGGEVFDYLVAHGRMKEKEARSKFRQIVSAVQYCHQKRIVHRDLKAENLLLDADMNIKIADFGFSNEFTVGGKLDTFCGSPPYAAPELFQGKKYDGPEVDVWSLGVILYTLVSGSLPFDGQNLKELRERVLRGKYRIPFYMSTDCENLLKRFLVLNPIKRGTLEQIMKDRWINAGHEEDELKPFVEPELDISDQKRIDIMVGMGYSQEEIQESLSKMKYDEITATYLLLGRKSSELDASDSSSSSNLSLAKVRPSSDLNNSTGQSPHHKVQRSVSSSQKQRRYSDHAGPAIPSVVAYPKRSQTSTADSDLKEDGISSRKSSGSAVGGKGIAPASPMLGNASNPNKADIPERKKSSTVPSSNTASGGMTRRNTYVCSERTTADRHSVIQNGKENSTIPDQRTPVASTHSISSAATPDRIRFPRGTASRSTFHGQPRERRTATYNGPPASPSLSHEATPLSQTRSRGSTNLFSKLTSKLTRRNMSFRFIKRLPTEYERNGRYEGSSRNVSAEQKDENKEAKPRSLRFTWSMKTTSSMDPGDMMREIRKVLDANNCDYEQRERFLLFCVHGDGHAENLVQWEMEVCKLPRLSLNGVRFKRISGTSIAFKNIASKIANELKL
Description: as §1, §2, §3

PDK1 = PDK1 (Homo sapiens (Human), UniProt O15530)
Description: as §1, §2, §3

S6K1 = S6K1 (Homo sapiens (Human), UniProt P23443)
Description: as §1, §2, §3

DYRK1A = DYRK1A (Homo sapiens (Human), UniProt Q13627)
Description: as §1, §2, §3

PIM1, sequence (P11309 whole entry): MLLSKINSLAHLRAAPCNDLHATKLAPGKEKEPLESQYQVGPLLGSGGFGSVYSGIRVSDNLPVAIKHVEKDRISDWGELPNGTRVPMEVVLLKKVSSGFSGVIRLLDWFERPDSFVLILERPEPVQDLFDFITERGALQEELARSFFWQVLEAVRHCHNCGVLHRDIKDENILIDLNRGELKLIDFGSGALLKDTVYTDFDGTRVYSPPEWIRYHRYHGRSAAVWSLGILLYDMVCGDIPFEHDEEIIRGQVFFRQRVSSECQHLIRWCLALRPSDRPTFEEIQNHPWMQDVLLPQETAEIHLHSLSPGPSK

Structure (SMILES): O=c1[nH]cc(Nc2ccccc2)cc1-c1ccccc1Br [Compound 69, 3-(2-Bromophenyl)-5-(phenylamino)pyridin-2(1H)-one]
- remaining activity at 10 µM (PIM1): 95%
- remaining activity at 10 µM (Aurora B): 77%
- remaining activity at 10 µM (LKB1): 83%
- remaining activity at 10 µM (CK1δ): 98%
- remaining activity at 10 µM (PLK1): 113%
- remaining activity at 10 µM (TrkA): 88%
- remaining activity at 10 µM (HIPK2): 96%
- remaining activity at 10 µM (CHK2): 101%
- remaining activity at 10 µM (RSK1): 94%
- remaining activity at 10 µM (EF2K): 116%
- remaining activity at 10 µM (MST2): 91%
- remaining activity at 10 µM (CAMK1): 96%
- remaining activity at 10 µM (TAK1): 68%
- remaining activity at 10 µM (IGF-1R): 96%
- remaining activity at 10 µM (RIPK2): 90%
- remaining activity at 10 µM (TBK1): 89%
- remaining activity at 10 µM (SYK): 79%
- remaining activity at 10 µM (Src): 93%
- remaining activity at 10 µM (NEK6): 102%
- remaining activity at 10 µM (IRAK4): 98%
- remaining activity at 10 µM (PKD1): 92%
- remaining activity at 10 µM (PKCa): 116%
- remaining activity at 10 µM (BTK): 94%
- remaining activity at 10 µM (PKA): 94%
- remaining activity at 10 µM (JAK3): 107%
- remaining activity at 10 µM (GSK3b): 105%
- remaining activity at 10 µM (Lck): 108%
- remaining activity at 10 µM (MKK1): 112%
- remaining activity at 10 µM (HER4): 98%
- remaining activity at 10 µM (SGK1): 89%
- remaining activity at 10 µM (MSK1): 100%
- remaining activity at 10 µM (MARK3): 102%
- remaining activity at 10 µM (PDK1): 103%
- remaining activity at 10 µM (S6K1): 87%
- remaining activity at 10 µM (DYRK1A): 66%
